Assay results taken from patent publication US20150148234A1, “HERBICIDE-RESISTANT SUNFLOWER PLANTS WITH MULTIPLE HERBICIDE RESISTANT ALLELES OF AHASL1 AND METHODS OF USE” (NIDERA S.A., priority 2013, published 2015).
Marks after values point to notes of the source that are not given here.

Experiments:
Assay in all cases: imazapyr whole plant greenhouse test (Example 2)
Format in all cases: in vivo
[1] = test system: sunflower line L1, A205V
Method: (§1) Seeds were sown in Petri dishes and, after germination, plantlets were transplanted to pots of 10 cm of diameter in a potting media consisting of equal parts of vermiculite, soil and sand. Plants were grown in a greenhouse under natural light conditions supplemented with 400 W sodium halide lamps to provide a 16 hr daylength. Day/night temperatures were 25 and 20 ° C., respectively. At the V2-V4 stage (Schneiter & Miller (1981) Crop Sci. 21:901-903) 10 plants of each genotype were randomly assigned to each treatment consisting of eight imazapyr doses (0, 40, 80, 160, 240, 320, 400 and 480 g ai/ha, corresponding to untreated, 0.5×, 1×, 2×, 3×, 4×, 5× and 6×, respectively), and a zero-time biomass determination. Experiment was arranged as a randomized block design with a full factorial (sunflower line×treatment) arrangement of treatments and 10 replications.
(§2) On the day of herbicide application ten plants of each genotype were cut at the cotyledonal node and dried at 60° C. for 48 hrs for zero-time dried weight determination.
(§3) The remaining plants were maintained for 14 days after imazapyr treatment (DAT) and their height, Phytotoxicity Index (PI) and above ground dry biomass were determined Height was determined as the distance between the cotyledonal node and the apex of each plant. Above ground biomass data from each line were converted to biomass accumulation after application by subtracting the appropriate average zero- time biomass from each sample. Dry biomass data were converted to percentages of the untreated control plants within each line to allow direct comparisons between groups.

[2] = test system: sunflower line L2, A205V
Method: as §1, §2, §3

[3] = test system: sunflower genotypes carrying A205V (mean of H1, L1, L2); settings: A205V Mean
Method: as §1, §2, §3

## CC(C)C1(C)N=C(c2ncccc2C(=O)O)NC1=O (centres unmarked) [imazapyr]
[1]; dose 0.5 (0.5x, 40 g ai/ha)
  Phytotoxicity Index (0-9) 14 days after treatment: 0
  biomass accumulation 14 days after treatment, % of untreated: 91.7%
  plant height 14 days after treatment, % of untreated: 100.0%
[1]; dose 1 (1x, 80 g ai/ha)
  Phytotoxicity Index (0-9) 14 days after treatment: 0
  biomass accumulation 14 days after treatment, % of untreated: 81.7%
  plant height 14 days after treatment, % of untreated: 100.0%
[1]; dose 2 (2x, 160 g ai/ha)
  Phytotoxicity Index (0-9) 14 days after treatment: 1.6
  biomass accumulation 14 days after treatment, % of untreated: 54.7%
  plant height 14 days after treatment, % of untreated: 78.9%
[1]; dose 3 (3x, 240 g ai/ha)
  Phytotoxicity Index (0-9) 14 days after treatment: 5.1
  biomass accumulation 14 days after treatment, % of untreated: 35.7%
  plant height 14 days after treatment, % of untreated: 50.0%
[1]; dose 4 (4x, 320 g ai/ha)
  Phytotoxicity Index (0-9) 14 days after treatment: 8.4
  biomass accumulation 14 days after treatment, % of untreated: 25.3%
  plant height 14 days after treatment, % of untreated: 38.1%
[1]; dose 5 (5x, 400 g ai/ha)
  Phytotoxicity Index (0-9) 14 days after treatment: 8.9
  biomass accumulation 14 days after treatment, % of untreated: 19.8%
  plant height 14 days after treatment, % of untreated: 31.8%
[1]; dose 6 (6x, 480 g ai/ha)
  Phytotoxicity Index (0-9) 14 days after treatment: 8.9
  biomass accumulation 14 days after treatment, % of untreated: 19.5%
  plant height 14 days after treatment, % of untreated: 34.7%
[2]; dose 0.5 (0.5x, 40 g ai/ha)
  Phytotoxicity Index (0-9) 14 days after treatment: 0
  biomass accumulation 14 days after treatment, % of untreated: 99.2%
  plant height 14 days after treatment, % of untreated: 99.2%
[2]; dose 1 (1x, 80 g ai/ha)
  Phytotoxicity Index (0-9) 14 days after treatment: 0
  biomass accumulation 14 days after treatment, % of untreated: 85.0%
  plant height 14 days after treatment, % of untreated: 98.1%
[2]; dose 2 (2x, 160 g ai/ha)
  Phytotoxicity Index (0-9) 14 days after treatment: 3.1
  biomass accumulation 14 days after treatment, % of untreated: 58.1%
  plant height 14 days after treatment, % of untreated: 63.6%
[2]; dose 3 (3x, 240 g ai/ha)
  Phytotoxicity Index (0-9) 14 days after treatment: 3.9
  biomass accumulation 14 days after treatment, % of untreated: 48.1%
  plant height 14 days after treatment, % of untreated: 51.9%
[2]; dose 4 (4x, 320 g ai/ha)
  Phytotoxicity Index (0-9) 14 days after treatment: 5.9
  biomass accumulation 14 days after treatment, % of untreated: 28.8%
  plant height 14 days after treatment, % of untreated: 27.5%
[2]; dose 5 (5x, 400 g ai/ha)
  Phytotoxicity Index (0-9) 14 days after treatment: 6.9
  biomass accumulation 14 days after treatment, % of untreated: 27.4%
  plant height 14 days after treatment, % of untreated: 26.0%
[2]; dose 6 (6x, 480 g ai/ha)
  Phytotoxicity Index (0-9) 14 days after treatment: 6.7
  biomass accumulation 14 days after treatment, % of untreated: 24.9%
  plant height 14 days after treatment, % of untreated: 29.3%
[3]; dose 0.5 (0.5x, 40 g ai/ha)
  Phytotoxicity Index (0-9) 14 days after treatment: 0
  biomass accumulation 14 days after treatment, % of untreated: 95.3* %
  plant height 14 days after treatment, % of untreated: 99.6%
[3]; dose 1 (1x, 80 g ai/ha)
  Phytotoxicity Index (0-9) 14 days after treatment: 0
  biomass accumulation 14 days after treatment, % of untreated: 85.5** %
  plant height 14 days after treatment, % of untreated: 99.2%
[3]; dose 2 (2x, 160 g ai/ha)
  Phytotoxicity Index (0-9) 14 days after treatment: 2.2*
  biomass accumulation 14 days after treatment, % of untreated: 62.8** %
  plant height 14 days after treatment, % of untreated: 73.7** %
[3]; dose 3 (3x, 240 g ai/ha)
  Phytotoxicity Index (0-9) 14 days after treatment: 5.1**
  biomass accumulation 14 days after treatment, % of untreated: 48.1** %
